How the values were obtained:
[1] = molecular target: T1, Interferon regulatory factor 4 (Homo sapiens, UniProt Q15306); assay: Inhibition of IRF4 (unknown origin) incubated for 1 hr by fluorescence polarization assay
T1 sequence (Q15306 whole entry): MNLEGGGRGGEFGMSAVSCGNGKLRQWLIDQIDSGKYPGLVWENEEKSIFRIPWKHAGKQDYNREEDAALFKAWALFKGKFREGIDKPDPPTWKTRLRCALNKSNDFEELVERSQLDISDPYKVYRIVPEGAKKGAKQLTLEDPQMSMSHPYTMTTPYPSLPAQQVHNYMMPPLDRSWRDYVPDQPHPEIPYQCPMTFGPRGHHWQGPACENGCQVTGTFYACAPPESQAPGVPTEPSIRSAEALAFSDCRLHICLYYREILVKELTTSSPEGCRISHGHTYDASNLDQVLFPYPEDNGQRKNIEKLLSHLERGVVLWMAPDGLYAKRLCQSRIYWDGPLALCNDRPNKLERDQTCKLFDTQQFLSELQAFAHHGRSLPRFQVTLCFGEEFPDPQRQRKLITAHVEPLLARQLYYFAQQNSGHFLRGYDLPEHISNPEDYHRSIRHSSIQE

[2] = Antiproliferative activity against human MM1.R cells assessed as inhibition of cell viability measured after 72 hrs by MTS assay; format: functional, cell-based; settings: MM.1R
[3] = Antiproliferative activity against human HAF cells assessed as inhibition of cell viability measured after 72 hrs by MTS assay; format: toxicity, cell-based
[4] = Antiproliferative activity against human HaCaT cells assessed as inhibition of cell viability measured after 72 hrs by MTS assay; format: toxicity, cell-based
NCI-H929 = assay: Antiproliferative activity against human NCI-H929 cells assessed as inhibition of cell viability measured after 72 hrs by MTS assay; format: functional, cell-based; settings: NCI-H929, 72 h
[5] = Selectivity ratio IC50 for human RPMI-8226 cells to IC50 for human NCI-H929 cells; format: toxicity
RPMI-8226 = assay: Antiproliferative activity against human RPMI-8226 cells assessed as inhibition of cell viability measured after 72 hrs by MTS assay; format: functional, cell-based; settings: RPMI-8226, 72 h
[6] = Selectivity ratio IC50 for human RPMI-8226 cells to IC50 for human MM1.R cells; format: toxicity

SMILES | IC50 [1] | also measured
CNC(=O)[C@@H](C)[C@H]1CC[C@H]2[C@@H]3C(=O)C=C4C(C)(C)C(=O)C(C#N)=C[C@]4(C)[C@H]3CC[C@]12C | 16.4 µM | –
COc1ccc(OC(=O)[C@@H](C)[C@H]2CC[C@H]3[C@@H]4C(=O)C=C5C(C)(C)C(=O)C(C#N)=C[C@]5(C)[C@H]4CC[C@]23C)cc1 | 9.37 µM | –
C[C@H](C(=O)Nc1ccc2cc[nH]c2c1)[C@H]1CC[C@H]2[C@@H]3C(=O)C=C4C(C)(C)C(=O)C(C#N)=C[C@]4(C)[C@H]3CC[C@]12C | 11.6 µM | –
CCNC(=O)[C@@H](C)[C@H]1CC[C@H]2[C@@H]3C(=O)C=C4C(C)(C)C(=O)C(C#N)=C[C@]4(C)[C@H]3CC[C@]12C | > 20 µM | –
COc1ccc(NC(=O)CC[C@@H](C)[C@H]2CC[C@H]3[C@@H]4C(=O)C=C5C(C)(C)C(=O)C(C#N)=C[C@]5(C)[C@H]4CC[C@]23C)cc1 | 17.9 µM | –
COC(=O)[C@@H](C)[C@H]1CC[C@H]2[C@@H]3C(=O)C=C4C(C)(C)C(=O)C(C#N)=C[C@]4(C)[C@H]3CC[C@]12C | > 20 µM | –
CCCCOc1ccc(NC(=O)[C@@H](C)[C@H]2CC[C@H]3[C@@H]4C(=O)C=C5C(C)(C)C(=O)C(C#N)=C[C@]5(C)[C@H]4CC[C@]23C)cc1 | 16.6 µM | –
C[C@H](C(=O)Nc1ccc(O)cc1)[C@H]1CC[C@H]2[C@@H]3C(=O)C=C4C(C)(C)C(=O)C(C#N)=C[C@]4(C)[C@H]3CC[C@]12C | 3.52 µM | IC50 [2]: 0.57 µM; IC50 at 72 h [3]: > 100 µM; IC50 at 72 h [4]: > 100 µM; IC50 (NCI-H929): 0.49 µM; Ratio IC50 [5]: 5; IC50 (RPMI-8226): 2.45 µM; Ratio IC50 [6]: 4.3
C[C@H](C(=O)Nc1cccnc1)[C@H]1CC[C@H]2[C@@H]3C(=O)C=C4C(C)(C)C(=O)C(C#N)=C[C@]4(C)[C@H]3CC[C@]12C | 5.05 µM | –
C[C@H](C(=O)Oc1ccc(Cl)cc1)[C@H]1CC[C@H]2[C@@H]3C(=O)C=C4C(C)(C)C(=O)C(C#N)=C[C@]4(C)[C@H]3CC[C@]12C | > 20 µM | –
CCCOC(=O)[C@@H](C)[C@H]1CC[C@H]2[C@@H]3C(=O)C=C4C(C)(C)C(=O)C(C#N)=C[C@]4(C)[C@H]3CC[C@]12C | > 20 µM | –
C[C@H](C(=O)Nc1ccc(C(F)(F)F)cc1)[C@H]1CC[C@H]2[C@@H]3C(=O)C=C4C(C)(C)C(=O)C(C#N)=C[C@]4(C)[C@H]3CC[C@]12C | > 20 µM | –
CCCCc1ccc(NC(=O)[C@@H](C)[C@H]2CC[C@H]3[C@@H]4C(=O)C=C5C(C)(C)C(=O)C(C#N)=C[C@]5(C)[C@H]4CC[C@]23C)cc1 | > 20 µM | –
C[C@H](C(=O)Oc1ccccc1)[C@H]1CC[C@H]2[C@@H]3C(=O)C=C4C(C)(C)C(=O)C(C#N)=C[C@]4(C)[C@H]3CC[C@]12C | 8.1 µM | –
C[C@H](C(=O)O)[C@H]1CC[C@H]2[C@@H]3C(=O)C=C4C(C)(C)C(=O)C=C[C@]4(C)[C@H]3CC[C@]12C | > 20 µM | –
C[C@H](C(=O)O)[C@H]1CC[C@H]2[C@@H]3CC=C4C(C)(C)C(=O)C(C#N)=C[C@]4(C)[C@H]3CC[C@]12C | > 20 µM | –
CCOc1ccc(NC(=O)[C@@H](C)[C@H]2CC[C@H]3[C@@H]4C(=O)C=C5C(C)(C)C(=O)C(C#N)=C[C@]5(C)[C@H]4CC[C@]23C)cc1 | 10.8 µM | –
C=CCNC(=O)[C@@H](C)[C@H]1CC[C@H]2[C@@H]3C(=O)C=C4C(C)(C)C(=O)C(C#N)=C[C@]4(C)[C@H]3CC[C@]12C | > 20 µM | –
C[C@H](C(=O)OC1CCCC1)[C@H]1CC[C@H]2[C@@H]3C(=O)C=C4C(C)(C)C(=O)C(C#N)=C[C@]4(C)[C@H]3CC[C@]12C | > 20 µM | –
C[C@H](C(=O)NC1CCCC1)[C@H]1CC[C@H]2[C@@H]3C(=O)C=C4C(C)(C)C(=O)C(C#N)=C[C@]4(C)[C@H]3CC[C@]12C | > 20 µM | –
C[C@H](C(=O)n1cccn1)[C@H]1CC[C@H]2[C@@H]3C(=O)C=C4C(C)(C)C(=O)C(C#N)=C[C@]4(C)[C@H]3CC[C@]12C | 3.79 µM | IC50 [2]: 0.24 µM; IC50 at 72 h [3]: > 100 µM; IC50 at 72 h [4]: > 100 µM; IC50 (NCI-H929): 0.06 µM; Ratio IC50 [5]: 5.7; IC50 (RPMI-8226): 0.34 µM; Ratio IC50 [6]: 1.4
C[C@H](C(=O)Nc1ccccc1)[C@H]1CC[C@H]2[C@@H]3C(=O)C=C4C(C)(C)C(=O)C(C#N)=C[C@]4(C)[C@H]3CC[C@]12C | 4.86 µM | IC50 [2]: 0.11 µM; IC50 at 72 h [3]: > 100 µM; IC50 at 72 h [4]: > 100 µM; IC50 (NCI-H929): 0.7 µM; Ratio IC50 [5]: 1; IC50 (RPMI-8226): 0.72 µM; Ratio IC50 [6]: 6.5
C[C@H](C(=O)Nc1ccc(Cl)cc1)[C@H]1CC[C@H]2[C@@H]3C(=O)C=C4C(C)(C)C(=O)C(C#N)=C[C@]4(C)[C@H]3CC[C@]12C | > 20 µM | –

SMILES | IC50 [1] | also measured
C[C@H](C(=O)Nc1ccc2ncsc2c1)[C@H]1CC[C@H]2[C@@H]3C(=O)C=C4C(C)(C)C(=O)C(C#N)=C[C@]4(C)[C@H]3CC[C@]12C | 12.1 µM | –
C[C@H](C(=O)O)[C@H]1CC[C@H]2[C@@H]3C(=O)C=C4C(C)(C)C(=O)C(C#N)=C[C@]4(C)[C@H]3CC[C@]12C | 13.5 µM | IC50 [2]: 3.16 µM; IC50 at 72 h [3]: > 100 µM; IC50 at 72 h [4]: > 100 µM; IC50 (NCI-H929): 2.63 µM; Ratio IC50 [5]: 1.6; IC50 (RPMI-8226): 4.25 µM; Ratio IC50 [6]: 1.2
CCc1ccc(NC(=O)[C@@H](C)[C@H]2CC[C@H]3[C@@H]4C(=O)C=C5C(C)(C)C(=O)C(C#N)=C[C@]5(C)[C@H]4CC[C@]23C)cc1 | 12.8 µM | –
COc1ccc(NC(=O)[C@@H](C)[C@H]2CC[C@H]3[C@@H]4C(=O)C=C5C(C)(C)C(=O)C(C#N)=C[C@]5(C)[C@H]4CC[C@]23C)cc1OC | 18.8 µM | –
C[C@H](C(=O)Nc1ccc2nccnc2c1)[C@H]1CC[C@H]2[C@@H]3C(=O)C=C4C(C)(C)C(=O)C(C#N)=C[C@]4(C)[C@H]3CC[C@]12C | 5.62 µM | –
C[C@H](C(=O)Nc1cncnc1)[C@H]1CC[C@H]2[C@@H]3C(=O)C=C4C(C)(C)C(=O)C(C#N)=C[C@]4(C)[C@H]3CC[C@]12C | 9.65 µM | –
C[C@H](CO)[C@H]1CC[C@H]2[C@@H]3CCC4=CC(=O)CC[C@]4(C)[C@H]3CC[C@]12C | > 20 µM | –
COc1ccc(NC(=O)CCC[C@@H](C)[C@H]2CC[C@H]3[C@@H]4C(=O)C=C5C(C)(C)C(=O)C(C#N)=C[C@]5(C)[C@H]4CC[C@]23C)cc1 | > 20 µM | –
CCOC(=O)[C@@H](C)[C@H]1CC[C@H]2[C@@H]3C(=O)C=C4C(C)(C)C(=O)C(C#N)=C[C@]4(C)[C@H]3CC[C@]12C | > 20 µM | –
C[C@H](C(=O)Nc1nccs1)[C@H]1CC[C@H]2[C@@H]3C(=O)C=C4C(C)(C)C(=O)C(C#N)=C[C@]4(C)[C@H]3CC[C@]12C | 14.2 µM | –
COc1cc(NC(=O)[C@@H](C)[C@H]2CC[C@H]3[C@@H]4C(=O)C=C5C(C)(C)C(=O)C(C#N)=C[C@]5(C)[C@H]4CC[C@]23C)cc(OC)c1 | 7.06 µM | –
CCCNC(=O)[C@@H](C)[C@H]1CC[C@H]2[C@@H]3C(=O)C=C4C(C)(C)C(=O)C(C#N)=C[C@]4(C)[C@H]3CC[C@]12C | > 20 µM | –
COc1cccc(NC(=O)[C@@H](C)[C@H]2CC[C@H]3[C@@H]4C(=O)C=C5C(C)(C)C(=O)C(C#N)=C[C@]5(C)[C@H]4CC[C@]23C)c1 | 5.43 µM | –
C[C@H](C(=O)NC1CCCCC1)[C@H]1CC[C@H]2[C@@H]3C(=O)C=C4C(C)(C)C(=O)C(C#N)=C[C@]4(C)[C@H]3CC[C@]12C | 16.4 µM | –
C[C@H](C(=O)Nc1ncco1)[C@H]1CC[C@H]2[C@@H]3C(=O)C=C4C(C)(C)C(=O)C(C#N)=C[C@]4(C)[C@H]3CC[C@]12C | 7.61 µM | –
C#CCNC(=O)[C@@H](C)[C@H]1CC[C@H]2[C@@H]3C(=O)C=C4C(C)(C)C(=O)C(C#N)=C[C@]4(C)[C@H]3CC[C@]12C | > 20 µM | –
C[C@H](C(=O)Nc1ccccc1O)[C@H]1CC[C@H]2[C@@H]3C(=O)C=C4C(C)(C)C(=O)C(C#N)=C[C@]4(C)[C@H]3CC[C@]12C | 15 µM | –
COc1ccc(NC(=O)C[C@@H](C)[C@H]2CC[C@H]3[C@@H]4C(=O)C=C5C(C)(C)C(=O)C(C#N)=C[C@]5(C)[C@H]4CC[C@]23C)cc1 | 15.1 µM | –
C[C@H](C(=O)OC1CCCCC1)[C@H]1CC[C@H]2[C@@H]3C(=O)C=C4C(C)(C)C(=O)C(C#N)=C[C@]4(C)[C@H]3CC[C@]12C | > 20 µM | –
COc1ccccc1NC(=O)[C@@H](C)[C@H]1CC[C@H]2[C@@H]3C(=O)C=C4C(C)(C)C(=O)C(C#N)=C[C@]4(C)[C@H]3CC[C@]12C | 10.4 µM | –
C[C@H](CO)[C@H]1CC[C@H]2[C@@H]3C(=O)C=C4C(C)(C)C(=O)C(C#N)=C[C@]4(C)[C@H]3CC[C@]12C | > 20 µM | –
C[C@H](C(=O)Oc1ccc(C(F)(F)F)cc1)[C@H]1CC[C@H]2[C@@H]3C(=O)C=C4C(C)(C)C(=O)C(C#N)=C[C@]4(C)[C@H]3CC[C@]12C | > 20 µM | –
COc1cc(NC(=O)[C@@H](C)[C@H]2CC[C@H]3[C@@H]4C(=O)C=C5C(C)(C)C(=O)C(C#N)=C[C@]5(C)[C@H]4CC[C@]23C)cc(OC)c1OC | 6.95 µM | –
